The results in this text go back to ChEMBL document CHEMBL4359824, “Dual FLT3 inhibitors: Against the drug resistance of acute myeloid leukemia in recent decade” (Eur J Med Chem, 2019).

Each structure is given as a SMILES string.

The test system of series [1] is MV4-11. In words: Cytotoxicity against human MV4-11 cells. Format: functional, cell-based.
Series [2] relates to MOLM-13. In words: Cytotoxicity against human MOLM13 cells. The series is classed as functional, cell-based.
In series [3] the test system is MOLM-14. Kind of series: Cytotoxicity against human MOLM14 cells. Format: functional, cell-based.
Series [4] has as its target T1, Receptor-type tyrosine-protein kinase FLT3 (Homo sapiens, UniProt P36888).
T1 sequence (P36888 whole entry): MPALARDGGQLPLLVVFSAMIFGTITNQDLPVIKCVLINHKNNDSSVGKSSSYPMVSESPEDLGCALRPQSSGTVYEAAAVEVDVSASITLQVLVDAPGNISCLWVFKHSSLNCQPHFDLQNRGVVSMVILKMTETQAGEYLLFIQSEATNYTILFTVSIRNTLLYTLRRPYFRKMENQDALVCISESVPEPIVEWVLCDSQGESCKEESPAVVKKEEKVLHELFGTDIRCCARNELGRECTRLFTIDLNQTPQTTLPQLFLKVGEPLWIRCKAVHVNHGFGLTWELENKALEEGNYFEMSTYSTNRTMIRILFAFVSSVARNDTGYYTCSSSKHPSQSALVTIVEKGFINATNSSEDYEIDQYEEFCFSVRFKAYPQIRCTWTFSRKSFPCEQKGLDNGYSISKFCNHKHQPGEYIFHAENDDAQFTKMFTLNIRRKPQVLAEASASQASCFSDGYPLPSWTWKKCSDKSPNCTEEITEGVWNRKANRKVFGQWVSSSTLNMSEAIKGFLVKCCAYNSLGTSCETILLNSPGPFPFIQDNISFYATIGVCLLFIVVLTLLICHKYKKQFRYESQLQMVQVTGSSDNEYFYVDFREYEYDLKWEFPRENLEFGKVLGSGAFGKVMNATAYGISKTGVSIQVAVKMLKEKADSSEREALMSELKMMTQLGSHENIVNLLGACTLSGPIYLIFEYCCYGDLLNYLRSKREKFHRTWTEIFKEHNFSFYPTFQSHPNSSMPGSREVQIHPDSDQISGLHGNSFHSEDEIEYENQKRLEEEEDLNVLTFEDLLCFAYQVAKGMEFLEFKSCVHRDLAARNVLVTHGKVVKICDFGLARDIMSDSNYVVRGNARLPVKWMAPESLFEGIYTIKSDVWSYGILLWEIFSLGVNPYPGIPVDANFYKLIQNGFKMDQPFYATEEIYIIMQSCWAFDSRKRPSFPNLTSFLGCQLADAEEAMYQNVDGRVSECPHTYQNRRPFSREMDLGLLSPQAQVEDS
In words: Inhibition of wild type FLT3 (unknown origin) expressed in mouse BAF3 cells. Format: cell-based.

The test system of series [5] is MOLM-13. Kind of series: Cytotoxicity against human MOLM13 cells expressing FLT3 ITD mutant. Format: functional, cell-based.
Series [6] concerns MV4-11. In words: Cytotoxicity against human MV4-11 cells expressing FLT3 ITD mutant. The series is classed as functional, cell-based.
Series [7] is described as follows: Oral bioavailability in monkey. The series is classed as ADME, organism-based, Macaca mulatta. Conditions: rhesus monkey, in vivo.
A short description of series [8]: Oral bioavailability in dog. The series is classed as ADME, organism-based, Canis lupus familiaris. Conditions: in vivo.
Series [9] has as its system MV4-11. In words: Antitumor activity against human MV4-11 cells xenografted in SCID/beige mouse assessed as tumor growth inhibition at 100 mg/kg administered daily relative to control. Conditions: read-out: TGI. The series is classed as functional. For orientation: A xenograft is tissue or cells of one species grown in another, often human tumour cells in immunodeficient mice.

Series [10] concerns MV4-11. Kind of series: Antitumor activity against human MV4-11 cells xenografted in SCID/beige mouse assessed as tumor growth inhibition at 75 mg/kg administered daily relative to control. The series is classed as functional. The following applies: read-out: TGI.
Series [11] concerns MV4-11. In words: Antitumor activity against human MV4-11 cells xenografted in SCID/beige mouse assessed as tumor growth inhibition at 50 mg/kg administered daily relative to control. Format: functional. The following applies: read-out: TGI.
In series [12] the target is T1, Receptor-type tyrosine-protein kinase FLT3. In words: Inhibition of FLT3 (unknown origin) phosphorylation by [gamma-33P]-ATP assay.
Series [13] addresses Dual specificity mitogen-activated protein kinase kinase 1 (Homo sapiens, UniProt Q02750). In words: Inhibition of MEK1 (unknown origin) phosphorylation by [gamma-33P]-ATP assay.
A short description of series [14]: Cytotoxicity against mouse BAF3(transformed) cells harboring D835G mutant by trypan blue dye exclusion method. Format: functional, cell-based.
A short description of series [15]: Cytotoxicity against mouse Ba/F3 FLT3-D835Y cells by trypan blue dye exclusion method. Format: functional, cell-based. The following applies: BaF3.
The test system of series [16] is MV4-11. Kind of series: Antiproliferative activity against human MV4-11 cells after 48 hrs by CellTiter-Glo assay. Format: functional, cell-based. Conditions: MV4-11, 48 h. In general terms: ATP-based viability assays read luminescence as a measure of living cells.
The test system of series [17] is MOLM-13. Kind of series: Antiproliferative activity against human MOLM13 cells after 48 hrs by CellTiter-Glo assay. The following applies: MOLM-13, 48 h. The series is classed as functional, cell-based.
Series [18] has as its target T1, Receptor-type tyrosine-protein kinase FLT3. Kind of series: Binding affinity to FLT3 (unknown origin).
For series [19], the target named is Serine/threonine-protein kinase pim-2 (Homo sapiens, UniProt Q9P1W9). In words: Binding affinity to Pim-2 (unknown origin).
The target in series [20] is Serine/threonine-protein kinase pim-3 (Homo sapiens, UniProt Q86V86). In words: Binding affinity to Pim-3 (unknown origin).
Series [21] has as its target Serine/threonine-protein kinase pim-1 (Homo sapiens, UniProt P11309). Kind of series: Binding affinity to Pim-1 (unknown origin).

The EC50 is the concentration needed to bring the measured effect to its halfway point. What is called IC50 is the concentration that gives 50% inhibition. The term bioavailability denotes dose-corrected exposure relative to a reference, in per cent. By Kd is commonly meant the equilibrium constant for the complex coming apart.

Dual specificity mitogen-activated protein kinase kinase 1, sequence (Q02750 whole entry): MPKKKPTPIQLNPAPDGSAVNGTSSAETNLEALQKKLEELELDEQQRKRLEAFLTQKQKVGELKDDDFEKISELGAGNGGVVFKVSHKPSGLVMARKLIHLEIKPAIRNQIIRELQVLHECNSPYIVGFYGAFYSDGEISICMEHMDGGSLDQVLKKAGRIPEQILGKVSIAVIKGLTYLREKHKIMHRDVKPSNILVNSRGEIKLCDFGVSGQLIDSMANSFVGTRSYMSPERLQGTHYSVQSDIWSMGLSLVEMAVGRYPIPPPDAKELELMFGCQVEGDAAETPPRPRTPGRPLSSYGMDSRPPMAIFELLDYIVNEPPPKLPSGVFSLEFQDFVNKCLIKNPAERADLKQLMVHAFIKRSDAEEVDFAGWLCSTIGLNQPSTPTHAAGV
Serine/threonine-protein kinase pim-2, sequence (Q9P1W9 whole entry): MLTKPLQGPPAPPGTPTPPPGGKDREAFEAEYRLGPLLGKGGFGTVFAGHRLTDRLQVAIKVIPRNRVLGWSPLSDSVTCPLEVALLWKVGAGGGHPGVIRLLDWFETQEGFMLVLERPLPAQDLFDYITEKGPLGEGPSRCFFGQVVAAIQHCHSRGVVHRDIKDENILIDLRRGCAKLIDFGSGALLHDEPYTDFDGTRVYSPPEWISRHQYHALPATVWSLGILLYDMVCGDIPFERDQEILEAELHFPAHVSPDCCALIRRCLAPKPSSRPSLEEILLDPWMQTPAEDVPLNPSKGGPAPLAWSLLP
Serine/threonine-protein kinase pim-1, sequence (P11309 whole entry): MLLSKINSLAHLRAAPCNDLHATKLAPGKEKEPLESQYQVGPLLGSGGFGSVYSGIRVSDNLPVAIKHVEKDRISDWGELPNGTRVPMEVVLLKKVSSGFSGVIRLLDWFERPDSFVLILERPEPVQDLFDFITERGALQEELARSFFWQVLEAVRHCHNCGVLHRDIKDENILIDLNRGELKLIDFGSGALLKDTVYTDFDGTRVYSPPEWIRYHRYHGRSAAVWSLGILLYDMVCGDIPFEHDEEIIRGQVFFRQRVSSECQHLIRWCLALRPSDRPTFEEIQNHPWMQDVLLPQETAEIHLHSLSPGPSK

Turning to `Cc1n[nH]c2ccc(-c3cncc(OC[C@@H](N)Cc4ccccc4)c3)cc12`, the figures for the EC50 in series [1], in [2] and in series [3] were 0.092 µM, 0.17 µM and 0.06 µM, respectively.

With `COc1cccc2nc(-c3cccs3)nc(NN3C(=O)C=C(C)C3=O)c12` [AS-602868], inhibition in series [4] was half-maximal at 0.618 µM (IC50).

Take `CC1(COc2ccc3c(c2)ncn3-c2ccc3cccc(N4CCC(N)CC4)c3n2)COC1` [CRENOLANIB]: the figures for the half-maximal inhibitory concentration (IC50) in series [5] and in series [6] were 0.0049 µM and 0.0015 µM, respectively.

As to `COc1cc2c(N3CCN(C(=O)Nc4ccc(OC(C)C)cc4)CC3)ncnc2cc1OCCCN1CCCCC1` [TANDUTINIB], the bioavailability in series [7] was 100%; in series [8] it was 50%.

Take `CC(C)n1c(C2CCNCC2)nc2c([N+](=O)[O-])c(Br)c(Br)cc21` [DAPOLSERTIB]: in [9], the inhibition in vivo at 100 mg/kg was 82%. Further, the inhibition in vivo at 75 mg/kg in series [10] stood at 74%. Further, the inhibition in vivo at 50 mg/kg in series [11] came out at 67%.

For `CCNc1cc(O)c2c(c1)/C=C/C[C@H](O)[C@H](O)C(=O)/C=C\[C@@H](C)[C@H](C)OC2=O` [E-6201], the IC50 was determined as 0.005 µM in series [12], 0.05 µM in [13], 4.6 µM in [14] and 26 µM in series [15].

`C1=N/C2=N/c3ccc(OCCN4CCCC4)c(c3)COC/C=C/COCc3cccc(c3)C(=C1)N2` [PACRITINIB]: the figures for the IC50 in series [16] and in series [17] were 0.067 µM and 0.047 µM, respectively.

On to `C[C@]12O[C@H](C[C@H](O)[C@H]1O)n1c3ccccc3c3c4c(c5c6ccccc6n2c5c31)C(=O)NC4=O`, for which the dissociation constant (Kd) in series [18] is 0.0032 µM; in series [19] it was 0.0031 µM; in series [20] it was 0.0004 µM; in series [21], 0.0029 µM.
